How the values were obtained:
[1] = system: TNF-a, IL-6, IL-1b, and COX-2; experiment: Anti-inflammatory effect, Propionibacterium acnes-induced inflammatory cytokine mRNA expression in keratinocytes (RT-PCR); format: cell-based; conditions: keratinocyte, 50 µg/ml Propionibacterium acnes, 50 µM compound, 24 hours; FIG. 8
Procedure: Anti-inflammatory effects of the compounds of the present disclosure were examined using Propionibacterium acnes. To this end, keratinocyte was seeded in a 6-well plate at a density of 300,000 cells per well, and then incubated in a DMEM culture medium (Gibco, USA) containing 10% FBS for 24 hours under conditions of 37°C and 5% CO2. After replacing the medium by a fresh medium, the cells were treated with 50 µg/ml of Propionibacterium acnes, and then the treated Propionibacterium acnes was treated with each 50 µM of the compound 1 and the compound 3 of the present disclosure and salicylic acid used as the positive control, followed by incubation for 24 hours under the same conditions as above. RNA was isolated from the cells, and cDNA was synthesized using a cDNA synthesis kit (Intron, Korea). PCR premix (Intron, Korea) and primers for each of TNF-a, IL-6, IL-1b, and COX-2 in Table 3 below were used to perform PCR. mRNA levels of TNF-a, IL-6, IL-1b and COX-2 were determined by 5% agarose gel electrophoresis.

[2] = distilled water, concentration of 10 mg/ml; FIG. 1
[3] = system: HaCaT keratinocyte cell line; experiment: Keratinocyte growth, sulforhodamine B (SRB) colorimetric assay; format: cell-based; conditions: 50 µM, 72 hours, serum-free medium, SRB absorbance at 560 nm, FIG. 2B
Procedure: To analyze growth factor-like efficacy and inhibitory efficacy of the compounds synthesized in Example <1-2>, a sulforhodamine B (SRB Sigma) colorimetric assay was performed using a HaCaT keratinocyte cell line (Korean Cell Line Bank) in accordance with a method of Rizzino, et al. (Cancer Res. 48:4266(1988))
HaCaT keratinocyte cell line was seeded in a 96-well plate at a density of 3,000 cells per well, and then cultured in Dulbecco's modified Eagle's medium (DMEM, Gibco, USA) containing 10% fetal bovine serum (FBS, Sigma) for 24 hours under conditions of 37°C and 5% CO2. The cultured cell line was detached from the bottom of the culture plate using a 1% trypsin solution, and only cell precipitate was collected by centrifugation. The cell precipitate was suspended in DMEM without FBS, and then cultured for 24 hours under conditions of 37°C and 5% CO2. 24 hours later, the medium was replaced by the same medium from which serum was completely removed. A blank sample in which the cell precipitate was dissolved sterile in 10% DMSO was prepared for standardization. Each of the compound 1 to the compound 4 (50 µM) of the present disclosure, salicylic acid (50 µM), and EGF (100 nM) as a positive control were treated. Incubation was carried out under the same conditions as above for 72 hours. […] Absorbance at UV 560 nm was measured to determine cell viability.

With O=C(O)c1ccccc1O [salicylic acid, 2-hydroxybenzoic acid] the “expression of inflammatory cytokines induced by Propionibacterium acnes” value [1] was “hardly inhibited expression”, the solubility in water [2] was “hardly dissolved in water” and the growth of keratinocytes [3] was “inhibited growth of keratinocytes due to toxicity”.
